Data from patent publication US20100267561A1, “HERBICIDAL PYRIDAZINONE DERIVATIVES” (priority 2007, published 2010).

Experiments:
Assay type in all cases: in vivo
[1] = tested on: barnyardgrass (Echinochloa crus-galli); assay: Test B flooded paddy test plant response
Procedure, shortened: (§1)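 Step one: raise plants to 2 leaves. Step two: flood pots 3 cm over the soil and apply compound into the water, keeping this depth. Step three: after 13–15 greenhouse days, score visually versus controls, 0–100, where 100 means complete control.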

rice (Oryza sativa) = assay: Test B flooded paddy test plant response
Procedure, shortened: as §1

[2] = tested on: umbrella sedge (Cyperus difformis); assay: Test B flooded paddy test plant response
Procedure, shortened: as §1

[3] = tested on: ducksalad (Heteranthera limosa); assay: Test B flooded paddy test plant response
Procedure, shortened: as §1

[4] = tested on: downy bromegrass (Bromus tectorum); assay: Test B pre-/postemergence plant response; settings: Preemergence; for Bromegrass, Downy plant response rating: 8 g ai/ha
Procedure, shortened: (§2)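 Seeds were sown and sprayed preemergence, while plants at 2 to 18 cm (1- to 4-leaf stage) got postemergence sprays. Compounds were formulated in a non-phytotoxic solvent mixture with surfactant. After 13 to 15 days in a greenhouse, injury was rated visually against untreated controls, 0 (no effect) to 100 (complete control).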

[5] = tested on: morningglory (Ipomoea coccinea); assay: Test B pre-/postemergence plant response; settings: Preemergence
Procedure, shortened: as §2

[6] = tested on: goosegrass (Eleusine indica); assay: Test B pre-/postemergence plant response; settings: Preemergence
Procedure, shortened: as §2

[7] = tested on: common (oilseed) sunflower (Helianthus annuus); assay: Test B pre-/postemergence plant response; settings: Preemergence
Procedure, shortened: as §2

[8] = tested on: Russian thistle (Salsola iberica); assay: Test B pre-/postemergence plant response; settings: Preemergence
Procedure, shortened: as §2

[9] = tested on: surinam grass (Brachiaria decumbens); assay: Test B pre-/postemergence plant response; settings: Preemergence; for Surinam Grass plant response rating: scale 0 to 100
Procedure, shortened: as §2

[10] = tested on: eastern black (E.B.) nightshade (Solanum ptycanthum); assay: Test B pre-/postemergence plant response; settings: Preemergence
Procedure, shortened: as §2

[11] = tested on: giant foxtail (Setaria faberii); assay: Test B pre-/postemergence plant response; settings: Preemergence
Procedure, shortened: as §2

[12] = tested on: wheat (Triticum aestivum); assay: Test B pre-/postemergence plant response; settings: Preemergence; for Wheat plant response rating: scale 0 to 100
Procedure, shortened: as §2

soybean (Glycine max) = assay: Test B pre-/postemergence plant response; settings: Preemergence
Procedure, shortened: as §2

[13] = Flood (flooded paddy test), 62 g ai/ha, scale 0 to 100, 0 no effect, 100 complete control
[14] = Flood (flooded paddy test), 125 g ai/ha, scale 0 to 100, 0 no effect, 100 complete control
[15] = Flood (flooded paddy test), 250 g ai/ha, scale 0 to 100, 0 no effect, 100 complete control
[16] = Flood, 31 g ai/ha, scale 0 to 100
[17] = 16 g ai/ha, scale 0 to 100 (0 no effect, 100 complete control)
[18] = 31 g ai/ha, 0 to 100 scale, 0 no effect, 100 complete control
[19] = 31 g ai/ha, scale 0 to 100 (0 no effect, 100 complete control)
[20] = 62 g ai/ha, 0 to 100 scale, 0 no effect, 100 complete control

`Cc1cc(-c2ccc(Cl)cc2)nn1-c1c(OS(=O)(=O)c2ccc(Cl)s2)cnn(C)c1=O` [Compound 55] was tested, and the “Plant response rating, Barnyardgrass” value [1, 13] was 0, the “Plant response rating, Barnyardgrass” value [1, 14] was 0 and the “Plant response rating, Barnyardgrass” value [1, 15] was 65. For the same molecule, the “Plant response rating, Barnyardgrass” value [1, 16] was 0, the “Plant response rating, Rice” value (rice (Oryza sativa); [13]) was 0 and the “Plant response rating, Rice” value (rice (Oryza sativa); [14]) was 0. For the same molecule, the “Plant response rating, Rice” value (rice (Oryza sativa); [15]) was 30, the “Plant response rating, Rice” value (rice (Oryza sativa); [16]) was 0 and the “Plant response rating, Sedge, Umbrella” value [2, 13] was 70. For the same molecule, the “Plant response rating, Sedge, Umbrella” value [2, 14] was 75, the “Plant response rating, Sedge, Umbrella” value [2, 15] was 80 and the “Plant response rating, Sedge, Umbrella” value [2, 16] was 45. For the same molecule, the “Plant response rating, Ducksalad” value [3, 13] was 0, the “Plant response rating, Ducksalad” value [3, 14] was 0 and the “Plant response rating, Ducksalad” value [3, 15] was 75. The “Plant response rating, Ducksalad” value [3, 16] was 0, the “Plant response rating, Bromegrass, Downy” value [4, 17] was 0 and the “Plant response rating, Bromegrass, Downy” value [4, 18] was 30. The “Plant response rating, Bromegrass, Downy” value ([4]; 62 g ai/ha, scale 0 to 100) was 60, the “Bromegrass, Downy plant response rating” value ([4]; scale 0 to 100) was 0 and the “Plant response rating, Morningglory” value [5, 19] was 0. For the same molecule, the “Plant response rating, Morningglory” value ([5]; 62 g ai/ha, scale 0 to 100) was 0, the “Morningglory plant response rating” value ([5]; 8 g ai/ha, scale 0 to 100) was 0 and the “Morningglory plant response rating” value ([5]; 16 g ai/ha, scale 0 to 100) was 0. For the same molecule, the “Plant response rating, Goosegrass” value [6, 18] was 98, the “Plant response rating, Goosegrass” value ([6]; 62 g ai/ha, scale 0 to 100) was 100 and the “Goosegrass plant response rating” value ([6]; 8 g ai/ha, scale 0 to 100) was 55. For the same molecule, the “Goosegrass plant response rating” value ([6]; 16 g ai/ha, scale 0 to 100) was 90, the “Plant response rating, Sunflower” value [7, 19] was 0 and the “Plant response rating, Sunflower” value ([7]; 62 g ai/ha, scale 0 to 100) was 0. For the same molecule, the “Sunflower plant response rating” value ([7]; 8 g ai/ha, scale 0 to 100) was 0, the “Sunflower plant response rating” value ([7]; 16 g ai/ha, scale 0 to 100) was 0 and the “Plant response rating, Russian Thistle” value [8, 19] was 0. For the same molecule, the “Plant response rating, Russian Thistle” value ([8]; 62 g ai/ha, scale 0 to 100) was 0, the “Russian Thistle plant response rating” value ([8]; 8 g ai/ha, scale 0 to 100) was 0 and the “Russian Thistle plant response rating” value ([8]; 16 g ai/ha, scale 0 to 100) was 0. The “Plant response rating, Surinam Grass” value [9, 19] was 100, the “Plant response rating, Surinam Grass” value [9, 20] was 100 and the “Surinam Grass plant response rating” value ([9]; 8 g ai/ha) was 15. For the same molecule, the “Surinam Grass plant response rating” value ([9]; 16 g ai/ha) was 50, the “Plant response rating, Nightshade, E. B.” value [10, 19] was 80 and the “Plant response rating, Nightshade, E. B.” value ([10]; 62 g ai/ha, scale 0 to 100) was 100. The “Nightshade, E. B. plant response rating” value ([10]; 8 g ai/ha, scale 0 to 100) was 0, the “Nightshade, E. B. plant response rating” value ([10]; 16 g ai/ha, scale 0 to 100) was 0 and the “Plant response rating, Foxtail, Giant” value [11, 18] was 100. For the same molecule, the “Plant response rating, Foxtail, Giant” value ([11]; 62 g ai/ha, scale 0 to 100) was 100, the “Foxtail, Giant plant response rating” value ([11]; 8 g ai/ha, scale 0 to 100) was 90 and the “Foxtail, Giant plant response rating” value ([11]; 16 g ai/ha, scale 0 to 100) was 98. The “Plant response rating, Wheat” value [12, 19] was 0, the “Plant response rating, Wheat” value [12, 20] was 5 and the “Wheat plant response rating” value ([12]; 16 g ai/ha) was 0. For the same molecule, the “Plant response rating, Soybean” value (soybean (Glycine max); [19]) was 0, the “Plant response rating, Soybean” value (soybean (Glycine max); 62 g ai/ha, scale 0 to 100) was 0 and the “Soybean plant response rating” value (soybean (Glycine max); 8 g ai/ha, scale 0 to 100) was 0. The “Soybean plant response rating” value (soybean (Glycine max); 16 g ai/ha, scale 0 to 100) was 0.
With `Cc1cc(-c2ccc(Cl)cc2)nn1-c1c(OS(=O)(=O)c2cccc3ccccc23)cnn(C)c1=O` [Compound 47] the “Plant response rating, Barnyardgrass” value [1, 13] was 0, the “Plant response rating, Barnyardgrass” value [1, 14] was 0 and the “Plant response rating, Barnyardgrass” value [1, 15] was 0. For the same molecule, the “Plant response rating, Barnyardgrass” value [1, 16] was 0, the “Plant response rating, Rice” value (rice (Oryza sativa); [13]) was 0 and the “Plant response rating, Rice” value (rice (Oryza sativa); [14]) was 0. For the same molecule, the “Plant response rating, Rice” value (rice (Oryza sativa); [15]) was 0, the “Plant response rating, Rice” value (rice (Oryza sativa); [16]) was 0 and the “Plant response rating, Sedge, Umbrella” value [2, 13] was 0. For the same molecule, the “Plant response rating, Sedge, Umbrella” value [2, 14] was 0, the “Plant response rating, Sedge, Umbrella” value [2, 15] was 0 and the “Plant response rating, Sedge, Umbrella” value [2, 16] was 0. The “Plant response rating, Ducksalad” value [3, 13] was 0, the “Plant response rating, Ducksalad” value [3, 14] was 0 and the “Plant response rating, Ducksalad” value [3, 15] was 0. For the same molecule, the “Plant response rating, Ducksalad” value [3, 16] was 0, the “Plant response rating, Bromegrass, Downy” value [4, 17] was 0 and the “Plant response rating, Bromegrass, Downy” value [4, 18] was 0. The “Plant response rating, Bromegrass, Downy” value ([4]; 62 g ai/ha, scale 0 to 100) was 90, the “Bromegrass, Downy plant response rating” value ([4]; scale 0 to 100) was 0 and the “Plant response rating, Morningglory” value [5, 17] was 0. For the same molecule, the “Plant response rating, Morningglory” value [5, 19] was 0, the “Plant response rating, Morningglory” value ([5]; 62 g ai/ha, scale 0 to 100) was 0 and the “Morningglory plant response rating” value ([5]; 8 g ai/ha, scale 0 to 100) was 0. The “Plant response rating, Goosegrass” value [6, 17] was 98, the “Plant response rating, Goosegrass” value [6, 18] was 100 and the “Plant response rating, Goosegrass” value ([6]; 62 g ai/ha, scale 0 to 100) was 100. The “Goosegrass plant response rating” value ([6]; 8 g ai/ha, scale 0 to 100) was 70, the “Plant response rating, Sunflower” value [7, 17] was 0 and the “Plant response rating, Sunflower” value [7, 19] was 0. For the same molecule, the “Plant response rating, Sunflower” value ([7]; 62 g ai/ha, scale 0 to 100) was 0, the “Sunflower plant response rating” value ([7]; 8 g ai/ha, scale 0 to 100) was 0 and the “Plant response rating, Russian Thistle” value [8, 17] was 0. The “Plant response rating, Russian Thistle” value [8, 19] was 0, the “Plant response rating, Russian Thistle” value ([8]; 62 g ai/ha, scale 0 to 100) was 40 and the “Russian Thistle plant response rating” value ([8]; 8 g ai/ha, scale 0 to 100) was 0. For the same molecule, the “Plant response rating, Surinam Grass” value [9, 17] was 95, the “Plant response rating, Surinam Grass” value [9, 19] was 98 and the “Plant response rating, Surinam Grass” value [9, 20] was 100. The “Surinam Grass plant response rating” value ([9]; 8 g ai/ha) was 80, the “Plant response rating, Nightshade, E. B.” value [10, 17] was 0 and the “Plant response rating, Nightshade, E. B.” value [10, 19] was 0. For the same molecule, the “Plant response rating, Nightshade, E. B.” value ([10]; 62 g ai/ha, scale 0 to 100) was 0, the “Nightshade, E. B. plant response rating” value ([10]; 8 g ai/ha, scale 0 to 100) was 0 and the “Plant response rating, Foxtail, Giant” value [11, 17] was 98. The “Plant response rating, Foxtail, Giant” value [11, 18] was 100, the “Plant response rating, Foxtail, Giant” value ([11]; 62 g ai/ha, scale 0 to 100) was 100 and the “Foxtail, Giant plant response rating” value ([11]; 8 g ai/ha, scale 0 to 100) was 0. The “Plant response rating, Wheat” value [12, 17] was 0, the “Plant response rating, Wheat” value [12, 19] was 0 and the “Plant response rating, Wheat” value [12, 20] was 20. For the same molecule, the “Wheat plant response rating” value ([12]; 8 g ai/ha) was 0, the “Plant response rating, Soybean” value (soybean (Glycine max); [17]) was 0 and the “Plant response rating, Soybean” value (soybean (Glycine max); [19]) was 0. The “Plant response rating, Soybean” value (soybean (Glycine max); 62 g ai/ha, scale 0 to 100) was 0 and the “Soybean plant response rating” value (soybean (Glycine max); 8 g ai/ha, scale 0 to 100) was 0.
